# Earlier results in patent US20100317664A1, “METHODS OF AFFECTING GASTROINTESTINAL TRANSIT AND GASTRIC EMPTYING, AND COMPOUNDS USEFUL THEREIN” (priority 2007, published 2010).
# Columns and labels:
# rats = conditions: parenteral injection to rats
structure (smiles),measurement,setting,value
N[C@@H](Cc1ccc(Cl)cc1)C(=O)O (racemic) [p-chlorophenylalanine],adverse psychological effects,humans; in vivo,"adverse psychological effects, such as dizziness, nausea and uneasiness"
same,entry into the central nervous system,humans; in vivo,readily gets into the central nervous system
same,constipation,"humans; oral administration, high doses (3000 mg/day), humans",causes constipation
same,gastrointestinal motility,rats,decreased their gastrointestinal motility
